The text below walks through data of patent publication US8932807B2, “High throughput in vitro translation (cell-lysate based) assay for detecting quorum sensing signals” (University of South Carolina, priority 2007, dated 2015).

What all share (assay type): biochemical, Agrobacterium tumefaciens NTL4 (pCF218)(pCF372)
Assay [1] addresses T1, receptor protein TraR (Agrobacterium tumefaciens, UniProt P33905).
T1 construct: expressed in transfected cells; host or cells: Agrobacterium tumefaciens NTL4 (pCF218)(pCF372); crude cell-free lysate (supernatant of sonicated cells)
The experiment in a line: cell-free lysate luminescence assay (Beta-Glo) for detection of AHLs. Particulars: for detection of the AHL by the cell-free assay: comparison of absorbance and luminescence assays; for minimum concentration of AHL resulting in an induction ratio greater than 3, Luminescence assay: cell-free lysate, Beta-Glo, 30° 2 h + 1 h, means±SD (n=3); for level that can be detected, luminescence assay / minimum detection limit, luminescence assay: summary statement. As to the method: From step 5) • 6) 50 μl of sample solution containing AHLs was added in 96-well plate. • 7) 50 μl of assay reagent diluted in 20 mM KH2PO4 was added into each well, mix and incubate at 30° for 2 h. • 8) 100 μl of an appropriate luminescent substrate (e.g. β-Glo, Promega) was added into each well, mix and incubate and incubate at 30° C. for 1 h. • 9) luminescence was read by microplate luminometer (e.g. Veritas Turner BioSystems). This experiment is discussed in greater detail below.
(§1) Preparation of cell-free lysate. One liter of the reporter strain was grown in AT minimum glucose media (30° C. with shaking for 18 h) to early exponential-phase and then harvested by centrifugation (12,000×g; 10 min). Cell pellets were collected and resuspended in 5 ml of KH2PO4 buffer (100 mM; pH 7.4), then sonicated for 30 sec. three times and centrifuged (12,000×g) at 4° C. for 30 min to remove particulate cell fragments. The supernatant was collected as the ‘cell-free lysate (CFL)’ reagent, and was stored (−80° C.) until use.
Comparison of absorbance and luminescence assays. To improve the sensitivity of the cell-free approach, a luminescence assay was developed for AHLs. The protocol involved: 1) addition of 50 μl of sample solution containing AHLs into a 96-well plate; 2) addition of 50 μl of cell-free extract, diluted in 20 mM KH2PO4 buffer (pH 7.0) resulting in a protein concentration of 80 μg/ml for each well, and then mixed and incubated at 30° for 2 h; 3) addition of 100 μl of β-Glo® (Promega) into each well, followed by mixing and incubation (30° C. for 1 h); and 4) measurement of luminescence using a Veritus Microplate Luminometer (Turner BioSystems). For control wells, 20 mM KH2PO4 (pH 7.0) buffer was used. To determine the detection limit, a 1:1 serial dilution of each AHL was performed in triplicate using 20 mM KH2PO4 (pH 7.0) buffer. Then, absorbance assays were conducted. Induction of β-galactosidase activity was calculated by dividing the sample absorbance or luminescence with that of controls. An induction ratio greater than 3 was considered active (27).

Assay [2] has as its target T1, receptor protein TraR. The experiment in a line: cell-free lysate absorbance assay (X-Gal, 635 nm) for detection of AHLs. Particulars: for minimum concentration of AHL resulting in an induction ratio greater than 3, Absorbance assay: cell-free lysate, X-Gal, absorbance 635 nm, means±SD (n=3). As to the method:
Absorbance Assay • 1) A culture of A. tumefaciens NTL4 (pCF218)(pCF372) was grown in 250 ml of AT minimal glucose media plus streptomycin (50 μg/ml) and tetracycline (5 μg/ml) at 30° C. with shaking for 18 hrs. • 2) The resulting cell culture was centrifuged at 10,000 rpm for 10 min. to collect cell pellets. • 3) The collected cell pellets were sonicated in 8 ml of 0.1 M KH2PO4 (pH 7.0) buffer to produce a homogenate. • 4) The sonicated homogenate was centrifuged at 50,000 rpm for 30 min. and the supernatant solution was collected. • 5) The supernatant solution was stored at −20° C. until the experiment. • 6) 50 μl of a sample solution containing AHLs was added to the wells of a 96-well plate. • 7) 50 μl of the collected supernatant solution from step (5), along with 100 μl of 20 mM KH2PO4, was added and mixed to each sample, and each sample was incubated at 30° for 2 h. • 8) 1 μl of X-Gal (20 mg/ml) was added and mixed into each well, and each sample was incubated at 30° C. for 1 h. • 9) The absorbance of each well was read at 635 nm.
as §1
Confirmation of β-galactosidase expression in vitro cell-free solution. To confirm β-galactosidase expression in cell-free solution, the following simple absorbance assay for AHLs was used. The protocol involved: 1) addition of 50 μl of sample solution containing AHLs into a 96-well plate; 2) addition of 50 μl of cell-free extract and 100 μl of 20 mM KH2PO4 (pH 7.0) into each well, followed by mixing and incubation at 30° C. for 2 h; 3) addition of 1 μl of X-Gal (20 mg/ml) into each well, then mixing and incubation at 30° C. for 1 h; and 4) measurement of absorbance in each well at 635 nm by spectrophotometer (Shimadzu UV-2401 PC UV-VIS, Shimadzu Corp.). To determine the detection limits, 1:1 serial dilutions of each AHL in 20 mM KH2PO4 (pH 7.0) buffer were performed in triplicate. Induction of β-galactosidase activity was calculated by dividing the absorbance of samples by those of controls. An induction ratio greater than 3 was considered active.

Assay [3] has as its system binding of AHL/TraR complex to β-galactosidase promoter. The experiment in a line: inhibition of Reactions 2) and 3) of the cell-free assay by streptomycin. The following applies: 1 μM C8-AHL, 30 min pre-incubation, absorbance, FIG. 5C. As to the method:
Inhibition of Reactions 2) and 3). […] First, 50 μl aliquots of 1 μM C8-AHL solution was added to each tube, followed by addition of cell-free extract. Further, a series of increasing concentrations of streptomycin (i.e. 0, 50, 125, 250, 300 μg) were added to the cell-free extract and incubated for 30 min. prior to the assay (4, 22, 29). Then, β-galactosidase expression was measured by absorbance.

T1 sequence (P33905 whole entry): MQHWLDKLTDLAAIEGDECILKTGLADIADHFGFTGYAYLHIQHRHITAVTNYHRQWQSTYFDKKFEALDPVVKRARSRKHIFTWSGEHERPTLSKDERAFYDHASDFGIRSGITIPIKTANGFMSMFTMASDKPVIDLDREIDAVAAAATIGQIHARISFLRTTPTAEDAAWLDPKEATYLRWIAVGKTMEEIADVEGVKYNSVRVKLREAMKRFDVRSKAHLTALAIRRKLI

Take `CCCC(=O)N[C@H]1CCOC1=O` [C4-AHL, N-butanoyl-homoserine lactone]: at receptor protein TraR [1], the “detection of the AHL by the cell-free assay” value is listed as “not able to detect”.
Regarding `CCCCCC(=O)NC1CCOC1=O` (stereo not drawn) [C6-AHL, N-hexanoyl-homoserine lactone], at receptor protein TraR [1], the “minimum concentration of AHL resulting in an induction ratio greater than 3, Luminescence assay” value is reported as 30 ± 3 nM and the “level that can be detected, luminescence assay” value is “low μM level”. The “minimum concentration of AHL resulting in an induction ratio greater than 3, Absorbance assay” value at receptor protein TraR [2] was found to be 335 ± 10 nM.
As to `CCCCCCC(=O)N[C@H]1CCOC1=O` [C7-AHL, N-heptanoyl-homoserine lactone], at receptor protein TraR [1], the “minimum concentration of AHL resulting in an induction ratio greater than 3, Luminescence assay” value is reported as 25 ± 5 nM and the “minimum detection limit, luminescence assay” value (shortened to “minimum detection limit”) is recorded as “approximately 10 nM”. In addition, the “minimum concentration of AHL resulting in an induction ratio greater than 3, Absorbance assay” value at receptor protein TraR [2] is 245 ± 8 nM.
As to `CCCCCCCC(=O)NC1CCOC1=O` (stereo not drawn) [C8-AHL, N-octanoyl-homoserine lactone], at receptor protein TraR [1], the “minimum concentration of AHL resulting in an induction ratio greater than 3, Luminescence assay” value stood at 20 ± 2 nM and the “minimum detection limit” value is “approximately 10 nM”. Besides, the “minimum concentration of AHL resulting in an induction ratio greater than 3, Absorbance assay” value at receptor protein TraR [2] came to 225 ± 11 nM. Also, at receptor protein TraR [2] (dose-response of β-galactosidase expression, FIG. 6), the “absorbance changes (635 nm) proportional to concentration, up to” value is recorded as “up to 2 μM”.
On to `CCCCCCCCCC(=O)N[C@H]1CCOC1=O` [C10-AHL, N-decanoyl-homoserine lactone], for which, on receptor protein TraR [1], the “minimum concentration of AHL resulting in an induction ratio greater than 3, Luminescence assay” value worked out at 100 ± 5 nM and the “level that can be detected, luminescence assay” value was “low μM level”. Further, the “minimum concentration of AHL resulting in an induction ratio greater than 3, Absorbance assay” value at receptor protein TraR [2] is reported as 1300 ± 20 nM.
The like results for `CCCCCCCCCCCC(=O)NC1CCOC1=O` (stereo not drawn) [C12-AHL, N-dodecanoyl-homoserine lactone] were, in that order, 200 ± 6 nM, “low μM level” and 2400 ± 30 nM.
`CCCCCCCCCCCCCC(=O)N[C@H]1CCOC1=O` [C14-AHL, N-tetradecanoyl-homoserine lactones]: at receptor protein TraR [1], the “detection of the AHL by the cell-free assay” value is recorded as “not able to detect”.
Regarding `CCCC(=O)CC(=O)N[C@H]1CCOC1=O` [oxo-C6-AHL, N-3-oxo-hexanoyl-homoserine lactone], at receptor protein TraR [1], the “minimum concentration of AHL resulting in an induction ratio greater than 3, Luminescence assay” value is on record as 17 ± 2 nM and the “minimum detection limit” value is listed as “approximately 10 nM”. The “minimum concentration of AHL resulting in an induction ratio greater than 3, Absorbance assay” value at receptor protein TraR [2] is 180 ± 25 nM.
Take `CCCCCC(=O)CC(=O)NC1CCOC1=O` (stereo not drawn) [oxo-C8-AHL, N-3-oxo-octanoyl-homoserine lactone]: the “minimum concentration of AHL resulting in an induction ratio greater than 3, Luminescence assay” value at receptor protein TraR [1] is 10 ± 3 nM. Moreover, at receptor protein TraR [2], the “minimum concentration of AHL resulting in an induction ratio greater than 3, Absorbance assay” value turned out to be 120 ± 10 nM.
Consider `[H]/N=C(/N)N[C@H]1[C@H](O)[C@@H](O)[C@H](O[C@@H]2O[C@@H](C)[C@](O)(C=O)[C@H]2O[C@@H]2O[C@@H](CO)[C@H](O)[C@@H](O)[C@@H]2NC)[C@@H](N/C(N)=N\[H])[C@@H]1O` [streptomycin], for which, in assay [3], the “streptomycin additions that reduced assay activities” value is on record as “above 125 μg/ml”.
